Test results as given in patent US9594073B2, “Test solvent for evaluating the compatibility of biologically active substances and graft copolymers” (ABBVIE DEUTSCHLAND GMBH & CO KG, priority 2010, dated 2017).

Experiment: Homogeneity of melt extrudates with Soluplus (optical microscope)
Format: physicochemical
Method: Samples were prepared by melt extrusions of mixtures consisting of fenofibrate or ibuprofen and Soluplus®. […] Aliquots of 50 g of the powdery mixtures were extruded on a laboratory extruder (Rondol l (10 mm) Rondol Technology Ltd. Staffordshire GB) using a conveying screw equipped with two kneading elements at about 120° C. and 100 rpm. The powdery mixtures were continuously metered in via a vibratory feeder. The extrudate exiting the extruder was passed through a calendar with two smooth rollers arranged at a gap distance of 0.4 mm. Calendered sheets having a thickness of about 1 mm were thus obtained. Pieces of 2 mm×2 mm were cut out from the sheets and homogeneity of the pieces was examined using an optical microscope (Leica DMLM).

Structure (SMILES): CC(C)Cc1ccc(C(C)C(=O)O)cc1 (centres unmarked) [ibuprofen]
- Amount of crystals in extrudate (ibuprofen concentration 40 wt %): no crystals
- Amount of crystals in extrudate (ibuprofen concentration 45 wt %): no crystals
- Amount of crystals in extrudate (ibuprofen concentration 50 wt %): low
- Amount of crystals in extrudate (ibuprofen concentration 55 wt %): moderate
- Amount of crystals in extrudate (ibuprofen concentration 60 wt %): high
